In general, ED50 refers to the midpoint of the dose-response relation. For orientation: IC50 means the midpoint of a concentration-inhibition curve.

The test system of one data set is C57BL/6J mice. Briefly: Mouse head twitch. The data set is classed as in vivo. As to conditions: mouse. The protocol: (§1) The effect of different doses of representative compounds of Formula I were evaluated on head-twitch response (HTR) and other behavioural responses indicative of serotonin syndrome as behavior-based models of psychedelic activity.
Male, C57BL/6J mice (body weight range 20-30 g) were dosed with the appropriate dose of test article, and following a 1-minute pre-treatment time, placed in individual observation chambers. Animals were visually assessed for the incidence head twitches continuously over a 1 hr period. Head twitches were defined as a rapid jerk of the head which was not elicited by an external tactile stimulus (Come and Pickering, Psychopharmacologia, 1967, 11(1): 65-78). Each head twitch was individually counted by a trained observer, and the data expressed as the mean+SEM of 6-10 mice per group. Mice were used in a single experiment only.

Data set [1] relates to mice. Briefly: Mouse 5-HT syndrome assay. It is filed as in vivo. As to conditions: up to 60 mg/kg SC. The protocol: as §1
Another data set concerns the target human 5-HT2A receptor (Homo sapiens (Human), UniProt P28223). Briefly: Human 5-HT2A radioligand binding assay ([3H]-ketanserin).
In data set [2] the test system is mice. Briefly: Mouse locomotor activity and rearing assay. As to conditions: 1-30 mg/kg, compared with 5-MeO-DMT.

Regarding `CCCCC/C=C\C/C=C\CCCCCCCC(=O)n1cc(CCN(C)C)c2cc(OC)ccc21` [Compound I-1, (9Z,12Z)-1-(3-(2-(Dimethylamino)ethyl)-5-methoxy-1H-indol-1-yl)octadeca-9,12-dien-1-one], the “head twitch response expression” value with C57BL/6J mice (1-60 mg/kg SC) is “robust head twitch response”. Further, in the data set with C57BL/6J mice (SC, read-out: ED50, head twitch response), the ED50 was 2.8 mg/kg. For the same compound, in the data set on C57BL/6J mice (at 10-30 mg/kg), the “duration of HT expression” value is 0 to 30 min. Also, the “signs of 5-HT syndrome (whole body twitches, FPT, Straub tail)” value in the data set with mice [1] was “did not induce signs of 5-HT syndrome”. The compound also yielded an IC50 at human 5-HT2A receptor of less than 2000 nM. The “motor activity or rearing” value with mice [2] is on record as “did not reduce motor activity or rearing to the same extent as 5-MeO-DMT”.

For the origin of these results see patent US20240376052A1, “N-SUBSTITUTED INDOLE DERIVATIVES AS SEROTONERGIC AGENTS USEFUL FOR THE TREATMENT OF DISORDERS RELATED THERETO” (Mindset Pharma Inc., priority 2021, published 2024).
